Experiments:
[1] = tested on: ASPC1; experiment: Antitumour activity against human ASPC1 cells xenografted in Crl:Nu-Foxnl nu mouse assessed as inhibition of tumour growth at total effective dose of 16 mg/kg, iv measured on day 39; type: functional; conditions: 936 h, time 39 day, read-out: TGI
[2] = tested on: MIA PaCa-2; experiment: Cytotoxicity against human MIA PaCa-2 cells assessed as reduction in cell viability measured after 72 hrs by SRB assay; type: functional, cell-based; conditions: MIA PaCa-2, 72 h
[3] = tested on: Quadruplex DNA; experiment: Stabilization of 5'-FAM/3'-TAMRA labeled telomeric G4 quadruplex DNA F21T (unknown origin) assessed as change in melting temperature at 10 microM measured after 15 mins by FRET assay; type: nucleic-acid assay
[4] = tested on: MCF7; experiment: Cytotoxicity against human MCF7 cells assessed as reduction in cell viability measured after 72 hrs by SRB assay; type: functional, cell-based; conditions: MCF7, 72 h
[5] = tested on: BXPC-3; experiment: Cytotoxicity against human BXPC-3 cells assessed as reduction in cell viability measured after 72 hrs by SRB assay; type: functional, cell-based; conditions: BXPC-3, 72 h
[6] = tested on: Capan-2; experiment: Cytotoxicity against human Capan-2 cells assessed as reduction in cell viability measured after 72 hrs by SRB assay; type: functional, cell-based; conditions: Capan-2, 72 h
[7] = tested on: Quadruplex DNA; experiment: Stabilization of 5'-FAM/3'-TAMRA labeled K-Ras G4 quadruplex DNA (unknown origin) assessed as change in melting temperature at 10 microM measured after 15 mins by FRET assay; type: nucleic-acid assay
[8] = tested on: BXPC-3; experiment: Antitumour activity against human BXPC-3 cells xenografted in Crl:Nu-Foxnl nu mouse assessed as inhibition of tumour growth at total effective dose of 16 mg/kg, iv measured on day 32; type: functional; conditions: BXPC-3, iv, 768 h, time 32 day, read-out: TGI
[9] = tested on: NCI-H460; experiment: Cytotoxicity against human NCI-H460 cells assessed as reduction in cell viability measured after 72 hrs by SRB assay; type: functional, cell-based; conditions: NCI-H460, 72 h
[10] = tested on: DU-145; experiment: Antitumour activity against human DU-145 cells xenografted in Crl:Nu-Foxnl nu mouse assessed as inhibition of tumour growth at total effective dose of 16 mg/kg, iv measured on day 33; type: functional; conditions: DU-145, iv, 792 h, time 33 day, read-out: TGI
[11] = tested on: BXPC-3; experiment: Antitumour activity against human BXPC-3 cells xenografted in Crl:Nu-Foxnl nu mouse assessed as inhibition of tumour growth at total effective dose of 16 mg/kg, iv measured on day 44; type: functional; conditions: BXPC-3, iv, 1056 h, time 44 day, read-out: TGI
[12] = tested on: MDA-MB-231; experiment: Antitumour activity against human MDA-MB-231 cells xenografted in Crl:Nu-Foxnl nu mouse assessed as inhibition of tumour growth at total effective dose of 32 mg/kg, iv measured on day 32; type: functional; conditions: MDA-MB-231, iv, 768 h, time 32 day, read-out: TGI
[13] = tested on: Quadruplex DNA; experiment: Stabilization of 5'-FAM/3'-TAMRA labeled c-Myc promoter G4 quadruplex DNA FPu18 (unknown origin) assessed as change in melting temperature at 10 microM measured after 15 mins by FRET assay; type: nucleic-acid assay
[14] = Toxicity in BALB/c mouse assessed as macroscopic anatomopathological changes at total dose of 6 mg/kg, iv administered as 3 times per week for 2 weeks measured for 71 days; type: organism-based; conditions: in vivo, 1704 h, time 71 day
[15] = tested on: PANC-1; experiment: Cytotoxicity against human PANC-1 cells assessed as reduction in cell viability measured after 72 hrs by SRB assay; type: functional, cell-based; conditions: PANC-1, 72 h
[16] = tested on: MDA-MB-231; experiment: Cytotoxicity against human MDA-MB-231 cells assessed as reduction in cell viability measured after 72 hrs by SRB assay; type: functional, cell-based; conditions: MDA-MB-231, 72 h
[17] = tested on: PANC-1; experiment: Antitumour activity against human PANC-1 cells xenografted in Crl:Nu-Foxnl nu mouse assessed as inhibition of tumour growth at total effective dose of 16 mg/kg, iv measured on day 33; type: functional; conditions: PANC-1, iv, 792 h, time 33 day, read-out: TGI
[18] = Stabilization of ds 5'-FAM-d(TATAGCTATA-HEG-TATAGCTATA)-TAMRA-3' (unknown origin) assessed as change in melting temperature at 10 microM measured after 15 mins by FRET assay; conditions: Homo sapiens
[19] = tested on: HCT-116; experiment: Cytotoxicity against human HCT-116 cells assessed as reduction in cell viability measured after 72 hrs by SRB assay; type: functional, cell-based; conditions: HCT-116, 72 h
[20] = tested on: ASPC1; experiment: Cytotoxicity against human ASPC1 cells assessed as reduction in cell viability measured after 72 hrs by SRB assay; type: functional, cell-based; conditions: ASPC1, 72 h
[21] = tested on: MIA PaCa-2; experiment: Antitumour activity against human MIA PaCa-2 cells xenografted in Crl:Nu-Foxnl nu mouse assessed as inhibition of tumour growth at total effective dose of 12 mg/kg, ip measured on day 15; type: functional; conditions: MIA PaCa-2, ip, 360 h, time 15 day, read-out: TGI
[22] = Toxicity in BALB/c mouse assessed as effect on body weight at total dose of 6 mg/kg, iv administered as 3 times per week for 2 weeks measured for 71 days; type: organism-based; conditions: in vivo, 1704 h, time 71 day
[23] = tested on: DU-145; experiment: Cytotoxicity against human DU-145 cells assessed as reduction in cell viability measured after 72 hrs by SRB assay; type: functional, cell-based; conditions: DU-145, 72 h
[24] = Toxicity in BALB/c mouse assessed as macroscopic anatomopathological changes at total dose of 120 mg/kg, iv administered as 3 times per week for 2 weeks measured for 65 days; type: organism-based; conditions: in vivo, 1560 h, time 65 day
[25] = Toxicity in BALB/c mouse assessed as effect on body weight at total dose of 120 mg/kg, iv administered as 3 times per week for 2 weeks measured for 65 days; type: organism-based; conditions: in vivo, 1560 h, time 65 day
[26] = tested on: PANC-1; experiment: Antitumour activity against human PANC-1 cells xenografted in Crl:Nu-Foxnl nu mouse assessed as inhibition of tumour growth at total effective dose of 160 mg/kg, iv measured on day 40; type: functional; conditions: PANC-1, iv, 960 h, time 40 day, read-out: TGI
[27] = tested on: BXPC-3; experiment: Antitumour activity against human BXPC-3 cells xenografted in Crl:Nu-Foxnl nu mouse assessed as inhibition of tumour growth at total effective dose of 160 mg/kg, iv measured on day 29; type: functional; conditions: BXPC-3, iv, 696 h, time 29 day, read-out: TGI
[28] = tested on: BXPC-3; experiment: Antitumour activity against human BXPC-3 cells xenografted in Crl:Nu-Foxnl nu mouse assessed as inhibition of tumour growth at total effective dose of 80 mg/kg, iv measured on day 32; type: functional; conditions: BXPC-3, iv, 768 h, time 32 day, read-out: TGI
[29] = Toxicity in BALB/c mouse assessed as macroscopic anatomopathological changes at 60 mg/kg, iv administered as single dose measured for 64 days; type: organism-based; conditions: in vivo, 1536 h, time 64 day
[30] = tested on: MIA PaCa-2; experiment: Antitumour activity against human MIA PaCa-2 cells xenografted in Crl:Nu-Foxnl nu mouse assessed as inhibition of tumour growth at total effective dose of 20 mg/kg, ip measured on day 33; type: functional; conditions: MIA PaCa-2, ip, 792 h, time 33 day, read-out: TGI
[31] = tested on: PANC-1; experiment: Antitumour activity against human PANC-1 cells xenografted in Crl:Nu-Foxnl nu mouse assessed as inhibition of tumour growth at total effective dose of 48 mg/kg, iv measured on day 32; type: functional; conditions: PANC-1, iv, 768 h, time 32 day, read-out: TGI
[32] = tested on: PANC-1; experiment: Antitumour activity against human PANC-1 cells xenografted in Crl:Nu-Foxnl nu mouse assessed as inhibition of tumour growth at total effective dose of 80 mg/kg, iv measured on day 56; type: functional; conditions: PANC-1, iv, 1344 h, time 56 day, read-out: TGI
[33] = Toxicity in BALB/c mouse assessed as effect on body weight at 60 mg/kg, iv administered as single dose measured for 64 days; type: organism-based; conditions: in vivo, 1536 h, time 64 day

| ΔTm [3] | ΔTm [7] | ΔTm [13] | ΔTm [18] | SMILES | IC50 [2] | IC50 [5] | IC50 [6] | IC50 [9] | IC50 [15] | IC50 [16] | IC50 [19] | IC50 [20] | IC50 [23] | other results |
| --- | --- | --- | --- | --- | --- | --- | --- | --- | --- | --- | --- | --- | --- | --- |
| 30 °C | 27.6 °C | 23.3 °C | 5.4 °C | O=c1c2ccccc2n2cnc3ccc(NCCCN4CCN(CCCNc5c6ccccc6nc6cccc([N+](=O)[O-])c56)CC4)c1c32 | 39 nM | 54 nM | 32 nM | 15 nM | 24 nM | 21 nM | 25 nM | 69 nM | 22 nM | inhibition in vivo at 16 mg/kg [1]: 29%; IC50 [4]: 82 nM; inhibition in vivo at 16 mg/kg [8]: 48%; inhibition in vivo at 16 mg/kg [10]: 61%; inhibition in vivo at 16 mg/kg [11]: 81%; inhibition in vivo at 32 mg/kg [12]: 53%; Activity [14]: Non-Toxic; inhibition in vivo at 16 mg/kg [17]: 80%; inhibition in vivo at 12 mg/kg [21]: 38%; Activity [22]: Non-Toxic |
| 19.2 °C | 19.9 °C | 27 °C | 3.6 °C | Cc1cc(C(N)CCN2CCN(CCCNc3ccc4ncn5c6ccccc6c(=O)c3c45)CC2)c([N+](=O)[O-])c2cc3ccccc3nc12 (stereo unspecified) | 58 nM | 351 nM | – | – | 65 nM | – | 45 nM | 240 nM | 62 nM | Activity [24]: Non-Toxic; Activity [25]: Non-Toxic; inhibition in vivo at 160 mg/kg [26]: 64%; inhibition in vivo at 160 mg/kg [27]: 40% |
| 18.3 °C | 10.7 °C | 27.6 °C | 2.8 °C | Cc1cc(NCCCN(C)CCCNc2ccc3ncn4c5ccc(O)cc5c(=O)c2c34)c([N+](=O)[O-])c2cc3ccccc3nc12 | 59 nM | 169 nM | 52 nM | 95 nM | 216 nM | 52 nM | 40 nM | 152 nM | 59 nM | inhibition in vivo at 80 mg/kg [28]: 77%; Activity [29]: Non-Toxic; inhibition in vivo at 20 mg/kg [30]: 55%; inhibition in vivo at 48 mg/kg [31]: 63%; inhibition in vivo at 80 mg/kg [32]: 64%; Activity [33]: Non-Toxic |

— ChEMBL document CHEMBL4765407, “Design, synthesis and high antitumor potential of new unsymmetrical bisacridine derivatives towards human solid tumors, specifically pancreatic cancers and their unique ability to stabilize DNA G-quadruplexes” (Eur J Med Chem, 2020)
